These molecules were tested against T1, 5-Lipoxygenase from HWBL-1 20,000 xg Supernatant (Rattus norvegicus, UniProt P12527) (assay: 5-lipoxygenase inhibition, 20,000 xg supernatant of homogenized HWBL-1 cells, radiolabeled arachidonic acid). Conditions: read-out: IC50 (in vitro inhibitory potency against 5-lipoxygenase).
T1 construct: 20,000 xg supernatant from 1.5 million homogenized HWBL-1 cells; endogenous in cells
T1 sequence (P12527 1-673): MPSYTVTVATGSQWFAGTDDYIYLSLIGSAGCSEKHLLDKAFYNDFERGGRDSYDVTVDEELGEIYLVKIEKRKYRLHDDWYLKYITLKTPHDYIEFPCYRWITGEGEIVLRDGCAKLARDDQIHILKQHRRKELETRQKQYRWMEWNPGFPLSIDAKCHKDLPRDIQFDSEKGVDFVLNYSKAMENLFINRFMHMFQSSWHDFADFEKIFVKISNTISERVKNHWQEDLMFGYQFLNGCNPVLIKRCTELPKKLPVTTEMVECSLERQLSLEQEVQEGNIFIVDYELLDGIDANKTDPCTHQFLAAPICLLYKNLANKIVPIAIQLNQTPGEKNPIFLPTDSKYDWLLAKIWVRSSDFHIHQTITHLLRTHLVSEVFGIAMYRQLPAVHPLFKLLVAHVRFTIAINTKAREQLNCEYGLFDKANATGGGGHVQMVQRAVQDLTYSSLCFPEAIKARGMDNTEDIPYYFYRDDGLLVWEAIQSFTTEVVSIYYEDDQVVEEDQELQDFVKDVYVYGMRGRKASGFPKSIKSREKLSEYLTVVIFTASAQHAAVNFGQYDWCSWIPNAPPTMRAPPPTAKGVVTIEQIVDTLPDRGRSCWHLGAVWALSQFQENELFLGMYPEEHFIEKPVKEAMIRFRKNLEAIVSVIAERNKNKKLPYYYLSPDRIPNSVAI
Format: biochemical
Description: Assays to determine 5-lipoxygenase inhibitory activity of representative compounds of the present invention were performed in […] incubations containing the 20,000 xg supernatant from 1.5 million homogenized HWBL-1 cells and various concentrations of the test compound. Reactions were initiated by addition of radiolabeled arachidonic acid and terminated by acidification and ether extraction. Reaction products were separated from nonconverted substrate by thin layer chromatography and measured by liquid scintillation spectroscopy. All incubations are performed in triplicate. Inhibition of 5-lipoxygenase activity was calculated as the ratio of the amount of product formed in the presence and absence of inhibitor. IC50 values (concentration of compound producing 50% enzyme inhibition) were calculated by linear regression analysis of percentage inhibition versus log inhibitor concentration plots. (Dyer, R. D.; Haviv, F.; Hanel, A. M.; Bornemier, D. A.; Carter, G. W. Fed. Proc., Fed. Am. Soc. Exp. Biol. 1984, 43, 1462A).
In Vitro Inhibitory Potencies of Compounds of this Invention
Against 5-Lipoxygenase from HWBL-1 20,000 xg Supernatant

SMILES | IC50
CN(C(=O)CN(O)C(N)=O)c1cccc(Oc2ccccc2)c1 [5, step 2] | 6300 nM
CNC(=O)N(O)CC(=O)N(C)c1cccc(Oc2ccccc2)c1 [5, step 3] | 7300 nM
NC(=O)N(O)CC(=O)Nc1cccc(Oc2ccccc2)c1 [Example 1, N-Hydroxy-N-[(((3-phenoxyphenyl)amino)carbonyl)methyl]urea] | 480 nM
NC(=O)N(O)CC(=O)Nc1cccc(OCc2ccccc2)c1 [Example 3, N-Hydroxy-N-[(((3-phenylmethoxyphenyl)amino)carbonyl)methyl]urea] | 870 nM
CN(C(=O)CN(O)C(N)=O)c1ccc(Oc2ccccc2)cc1 [Example 4] | 5800 nM
CN(C(=O)CN(O)C(N)=O)c1cccc(OCc2ccccc2)c1 [Example 9, N-Hydroxy-N-[((N-methyl-(3-phenylmethoxyphenyl)amino)carbonyl)methyl]urea] | 2800 nM
NC(=O)N(O)CC(=O)Nc1ccc(Oc2ccccc2)cc1 [Example 10, N-Hydroxy-N-[(((4-phenoxyphenyl)amino)carbonyl)methyl]urea] | 3500 nM
CC(/C=C/c1ccc(Br)cc1)NC(=O)CN(O)C(N)=O (stereo not drawn) [Example 11, N-Hydroxy-N-[(((trans-4-(4-bromophenyl)but-3-en-2-yl)amino)carbonyl)methyl]urea] | 6600 nM
CC(/C=C/c1cccc(Oc2ccccc2)c1)NC(=O)CN(O)C(N)=O (stereo not drawn) [Example 12, N-Hydroxy-N-[(((trans-4-(3-phenoxyphenyl)but-3-en-2-yl)amino)carbonyl)methyl]urea] | 730 nM
CC(/C=C\c1cccc(Oc2ccccc2)c1)NC(=O)CN(O)C(N)=O (stereo not drawn) [Example 13] | 830 nM
CN(CCN(O)C(N)=O)C(=O)Cc1ccc(Br)cc1 [Example 14, N-Hydroxy-N-[2-(((4-bromophenylacetyl)-N-methyl)amino)ethyl]urea] | 1800 nM
CN(CCN(O)C(N)=O)C(=O)c1cccc(Oc2ccccc2)c1 [Example 15] | 640 nM
COc1cccc(C(=O)NCCN(O)C(N)=O)c1 [Example 16] | 1900 nM
COc1ccc(C(=O)NCCN(O)C(N)=O)cc1 [Example 17] | 5000 nM
CCCCOc1ccc(C(=O)NCCN(O)C(N)=O)cc1 [Example 18] | 250 nM
NC(=O)N(O)CCNC(=O)c1ccc(Cl)cc1 [Example 20, N-Hydroxy-N-[2-((4-chlorobenzoyl)amino)ethyl]urea] | 4500 nM
NC(=O)N(O)CCCCNC(=O)c1cccc(Oc2ccccc2)c1 [Example 22, N-Hydroxy-N-[4-((3-phenoxybenzoyl)amino)butyl]urea] | 330 nM
CNC(=O)N(O)CCNC(=O)c1cccc(Oc2ccccc2)c1 [Example 24, N-Hydroxy-N'-methyl-N-[2-((3-phenoxybenzoyl)amino)ethyl]urea] | 290 nM
NC(=O)N(O)CCNC(=O)c1cccc(Oc2cccc(C(F)(F)F)c2)c1 [Example 25, N-Hydroxy-N-[2-((3-(3-trifluoromethylphenoxy)benzoyl)amino)ethyl]urea] | 430 nM
CNC(=O)N(O)CCNC(=O)c1cccc(Oc2ccc(Cl)cc2)c1 [Example 27, N-Hydroxy-N'-methyl-N-[2-((3-(4-chlorophenoxy)benzoyl)amino)ethyl]urea] | 760 nM
COc1ccc(Oc2cccc(C(=O)NCCN(O)C(N)=O)c2)cc1 [Example 28, N-Hydroxy-N-[2-((3-(4-methoxyphenoxy)benzoyl)amino)ethyl]urea] | 230 nM
NC(=O)N(O)CCNC(=O)c1cccc(Oc2ccc(Cl)c(Cl)c2)c1 [Example 29, N-Hydroxy-N-[2-((3-(3,4-dichlorophenoxy)benzoyl)amino)ethyl]urea] | 300 nM
NC(=O)N(O)CCNC(=O)c1cccc(Oc2cc(Cl)cc(Cl)c2)c1 [Example 30, N-Hydroxy-N-[2-((3-(3.5-dichlorophenoxy)benzoyl)amino)ethyl]urea] | 340 nM
CC(C)(C)c1ccc(Oc2cccc(C(=O)NCCN(O)C(N)=O)c2)cc1 [Example 31, N-Hydroxy-N-[2-((3-(4-tert-butylphenoxy)benzoyl)amino)ethyl]urea] | 470 nM

— patent US5214204A, “Arylamidoalkyl-N-hydroxyurea compounds having lipoxygenase inhibitory activity” (Abbott Laboratories, priority 1991, dated 1993)
